This assay relates to P388 leukemia ip, CD2F1 mice, survival T/C. Nature of the assay: NCI In Vivo Anticancer Drug Screen. Data for tumor model P388 Leukemia (intraperitoneal) in CD2F1 (CDF1) mice. Particulars: endpoint: median survival time, higher = longer survival. The gist of the method:
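Mice carrying the transplanted tumor received test compound or vehicle. Survival was recorded in each group, and the value is the treated-group measurement divided by that of the vehicle-treated control group.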

Where [1] appears, read: dose: 50.0 mg/kg/injection, schedule: Q01DX009 (ip), vehicle: saline with Tween-80.
[2] abbreviates: dose: 100.0 mg/kg/injection, schedule: Q01DX009 (ip), vehicle: saline with Tween-80.
The mark [3] stands for this setting: dose: 60.0 mg/kg/injection, schedule: Q01DX005 (ip), vehicle: saline with Tween-80.

SMILES strings stand for the structures. “And” between values parts separate entries of the source, which are not always exact repeats. Equal values may be shown once. Inconclusive results and toxic doses are left out.

`Cc1cccc(-c2cc3cccnc3nc2NN=O)c1C`: the T/C by setting is: (dose: 3.12 mg/kg/injection, schedule: Q01DX009 (ip), vehicle: water) 106 % of control; (dose: 6.25 mg/kg/injection, schedule: Q01DX009 (ip), vehicle: water) 105 % of control and 122 % of control; (dose: 12.5 mg/kg/injection, schedule: Q01DX009 (ip), vehicle: water) 111 % of control; (dose: 50.0 mg/kg/injection, schedule: Q01DX009 (ip), vehicle: water) 106 % of control and 121 % of control; (dose: 100.0 mg/kg/injection, schedule: Q01DX009 (ip), vehicle: water) 93 % of control.

Turning to `O=C(O)C1=C(/C=C(/c2ccccc2)c2ccc(Cl)cc2)OCCC1`, the T/C by setting is: under setting [1], 90 % of control; under setting [2], 94 % of control; (dose: 200.0 mg/kg/injection, schedule: Q01DX009 (ip), vehicle: saline with Tween-80) 105 % of control.

For the compound `Cc1ncc(N)c(C(=O)O)n1`, the T/C (dose: 50.0 mg/kg/injection, schedule: Q01DX005 (ip), vehicle: Klucel (hydroxypropylcellulose) (HPC)) is 98 % of control and the T/C (dose: 100.0 mg/kg/injection, schedule: Q01DX005 (ip), vehicle: Klucel (hydroxypropylcellulose) (HPC)) was 98 % of control.

As for `CC(C)(C)N1OC2C=CC1CC2O` (stereo not drawn) (tested in a mixture with another compound), the T/C (dose: 25.0 mg/kg/injection, schedule: Q01DX001 (ip), vehicle: Klucel (hydroxypropylcellulose) (HPC)) is 113 % of control; the T/C (dose: 50.0 mg/kg/injection, schedule: Q01DX001 (ip), vehicle: Klucel (hydroxypropylcellulose) (HPC)) is 114 % of control; the T/C (dose: 100.0 mg/kg/injection, schedule: Q01DX001 (ip), vehicle: Klucel (hydroxypropylcellulose) (HPC)) was 107 % of control.

For `CC(C)=C[C@@H]1c2c(c3ccccc3n(C)c2=O)O[C@H]2c3c(c4ccccc4n(C)c3=O)OC(C)(C)[C@@H]12`, the T/C reads like this: (dose: 50.0 mg/kg/injection, schedule: Q01DX005 (ip), vehicle: saline with Tween-80) 99 % of control; (dose: 100.0 mg/kg/injection, schedule: Q01DX005 (ip), vehicle: saline with Tween-80) 100 % of control; (dose: 200.0 mg/kg/injection, schedule: Q01DX005 (ip), vehicle: saline with Tween-80) 100 % of control.

Take `CSP(C)(=O)CCC(C)=O` (stereo not drawn): the T/C is 100 % of control (dose: 25.0 mg/kg/injection, schedule: Q01DX001 (ip), vehicle: saline); 100 % of control (dose: 50.0 mg/kg/injection, schedule: Q01DX001 (ip), vehicle: saline); 102 % of control (dose: 100.0 mg/kg/injection, schedule: Q01DX001 (ip), vehicle: saline).

Turning to `O=c1cc[nH]c(=S)[nH]1.[Cu+2]`, the T/C reads like this: (dose: 1.56 mg/kg/injection, schedule: Q01DX009 (ip), vehicle: DMSO) 100 % of control; (dose: 3.12 mg/kg/injection, schedule: Q01DX009 (ip), vehicle: DMSO) 99 % of control; (dose: 6.25 mg/kg/injection, schedule: Q01DX009 (ip), vehicle: DMSO) 86 % of control; (dose: 12.5 mg/kg/injection, schedule: Q01DX009 (ip), vehicle: DMSO) 100 % of control.

As to `COC1C(O)C(C)OC(OC2C(Oc3cccc4c(O)c5c(=O)oc6ccc(C)c7c(=O)oc(c34)c5c67)OC(C)C(O)C2O)C1O` (stereo not drawn), the T/C by setting is: (dose: 0.5 mg/kg/injection, schedule: Q01DX009 (ip), vehicle: saline with Tween-80) 108 % of control; (dose: 4.0 mg/kg/injection, schedule: Q01DX009 (ip), vehicle: saline with Tween-80) 157 % of control; (dose: 6.25 mg/kg/injection, schedule: Q01DX009 (ip), vehicle: saline with Tween-80) 152 % of control; (dose: 12.5 mg/kg/injection, schedule: Q01DX001 (sc), vehicle: Klucel (hydroxypropylcellulose) (HPC)) 100 % of control; (dose: 12.5 mg/kg/injection, schedule: Q01DX001 (sc), vehicle: other) 97 % of control; (dose: 12.5 mg/kg/injection, schedule: Q01DX005 (sc), vehicle: Klucel (hydroxypropylcellulose) (HPC)) 98 % of control. Further, the T/C is 101 % of control (dose: 12.5 mg/kg/injection, schedule: Q01DX005 (sc), vehicle: other); 164 % of control (dose: 12.5 mg/kg/injection, schedule: Q01DX009 (ip), vehicle: saline with Tween-80); 102 % of control (dose: 25.0 mg/kg/injection, schedule: Q01DX001 (sc), vehicle: Klucel (hydroxypropylcellulose) (HPC)); 100 % of control (dose: 25.0 mg/kg/injection, schedule: Q01DX001 (sc), vehicle: other); 97 % of control (dose: 25.0 mg/kg/injection, schedule: Q01DX005 (sc), vehicle: Klucel (hydroxypropylcellulose) (HPC)); 92 % of control (dose: 25.0 mg/kg/injection, schedule: Q01DX005 (sc), vehicle: other). The T/C is 174 % of control (dose: 25.0 mg/kg/injection, schedule: Q01DX009 (ip), vehicle: saline with Tween-80); 98 % of control (dose: 50.0 mg/kg/injection, schedule: Q01DX001 (sc), vehicle: Klucel (hydroxypropylcellulose) (HPC)); 109 % of control (dose: 50.0 mg/kg/injection, schedule: Q01DX001 (sc), vehicle: other); 100 % of control (dose: 50.0 mg/kg/injection, schedule: Q01DX005 (sc), vehicle: Klucel (hydroxypropylcellulose) (HPC)); 98 % of control (dose: 50.0 mg/kg/injection, schedule: Q01DX005 (sc), vehicle: other); 183 % of control under setting [1]. The T/C under setting [2] was 171 % of control.

In the case of `COC(=O)CCCOCCCC(=O)OC`, the T/C was 95 % of control (dose: 50.0 mg/kg/injection, schedule: Q01DX009 (ip), vehicle: saline) and 99 % of control (dose: 100.0 mg/kg/injection, schedule: Q01DX009 (ip), vehicle: saline).

As for `CN=C(NC)Nc1nc(-c2ccccc2)c(-c2ccccc2)[nH]1`, the T/C was 105 % of control (dose: 12.5 mg/kg/injection, schedule: Q04DX002 (ip), vehicle: saline with Tween-80); 100 % of control (dose: 25.0 mg/kg/injection, schedule: Q04DX002 (ip), vehicle: saline with Tween-80); 107 % of control (dose: 50.0 mg/kg/injection, schedule: Q04DX002 (ip), vehicle: saline with Tween-80).

Regarding `O=S1(=O)CCCN1c1ccccn1`, the T/C by setting is: under setting [3], 102 % of control; (dose: 120.0 mg/kg/injection, schedule: Q01DX005 (ip), vehicle: saline with Tween-80) 105 % of control; (dose: 240.0 mg/kg/injection, schedule: Q01DX005 (ip), vehicle: saline with Tween-80) 101 % of control.

On to `O=S(=O)(F)c1ccc(C[P+](c2ccccc2)(c2ccccc2)c2ccccc2)cc1Cl`, for which the T/C by setting is: (dose: 15.0 mg/kg/injection, schedule: Q01DX005 (ip), vehicle: saline with Tween-80) 111 % of control; (dose: 30.0 mg/kg/injection, schedule: Q01DX005 (ip), vehicle: saline with Tween-80) 106 % of control; under setting [3], 110 % of control and 86 % of control.

These data come from PubChem BioAssay AID330 (DTP/NCI, 2004).
